# Measurements published in patent US20210346359A1, “Use of CFTR Modulators For Treating Cerebrovascular Conditions” (Qanatpharma AG, priority 2018, published 2021).
# Entries after “also recorded” stand apart in the source; their conditions may differ.
# Columns and labels:
# CFTR [1] = molecular target: T1, CFTR (Mus musculus, UniProt P26361); assay: Forskolin-stimulated iodide efflux in vascular smooth muscle cells; assay type: cell-based; set-up: mesenteric artery segments were isolated, cut into small pieces and digested with trypsin, collagenase and elastase; endogenous in cells; host or cells: primary mesenteric artery vascular smooth muscle cells; settings: primary vascular smooth muscle cells; 48 h TNF 10 ng/ml + C18 6 μmol/L for last 24 h
# Procedure: Procedures for isolating and culturing mesenteric artery smooth muscle cells were carried out as described in (10). Briefly, mesenteric artery segments were isolated, cut into small pieces and digested with trypsin, collagenase and elastase. The resulting cell suspension was washed several times in phosphate-buffered saline and plated in Dulbecco's Modified Eagle Medium (DMEM) culture media containing 10% fetal bovine serum and 1% penicillin-streptomycin. Cell cultures were maintained at 37° C. with 5% CO2 and split at 106 cells seeding density. […]
# Iodide efflux measurements were conducted as previously described (18). […] Supernatant iodide levels were quantified with an iodide-selective electrode (Lazar Research Laboratories; Los Angeles, USA), calibrated with Nal standards. Pre-stimulation iodide levels were determined and then cells were stimulated with a cocktail containing 10 μmol/L forskolin, 1 mmol/L isobutylmethylxanthine and 100 μmol/L cpt-cAMP (in 1% v/v DMSO). […] Supernatant iodide levels were determined over seven consecutive 1-minute intervals post-stimulation. […] The maximum efflux rate, therefore, was calculated using the measured efflux level between 60-120 seconds post-stimulation (18).
# wild-type CFTR = wild-type CFTR (Homo sapiens, UniProt P13569); settings: demonstrated earlier (15); cited from earlier work
# CFTR [2] = molecular target: T1, CFTR; assay: FACS-based FITC-S1P uptake in vascular smooth muscle cells; assay type: cell-based; set-up: mesenteric artery segments were isolated, cut into small pieces and digested with trypsin, collagenase and elastase; endogenous in cells; host or cells: primary mesenteric artery vascular smooth muscle cells; settings: primary vascular smooth muscle cells; 48 h TNF 10 ng/ml + C18 6 μmol/L for last 24 h
# Procedure: Procedures for isolating and culturing mesenteric artery smooth muscle cells were carried out as described in (10). Briefly, mesenteric artery segments were isolated, cut into small pieces and digested with trypsin, collagenase and elastase. The resulting cell suspension was washed several times in phosphate-buffered saline and plated in Dulbecco's Modified Eagle Medium (DMEM) culture media containing 10% fetal bovine serum and 1% penicillin-streptomycin. Cell cultures were maintained at 37° C. with 5% CO2 and split at […] cells seeding density. Baby hamster kidney fibroblast cells stably expressing wild-type human CFTR (10,17) were maintained in DMEM/F12 media containing 5% fetal bovine serum and 250 μmol/L methotrexate (which activates the CFTR transgene promoter). Cells were maintained under standard cell culture conditions at 37° C. with 5% CO2.
# As previously described (10), cell monolayers (treated or untreated) were incubated with 1 μmol/L S1P-FITC for 60 minutes; the cells were then detached by trypsinization, washed twice with ice-cold PBS, filtered through a 35 μm cell strainer and analyzed using the Becton-Dickinson FACS Canto operated by FACS DIVA version 6.1 software. […] The analysis procedure determined the mean fluorescence intensity (arbitrary units) of each cell population, which is a measure of uptake.
# mice with heart failure = assay: MRI (FAIR) cerebral blood flow in heart failure mice; assay type: in vivo, mouse; settings: HF mice, forebrain cortical, 3 mg/kg daily for 2 days
# Excerpt: As described previously (10-12), we utilized a flow-sensitive alternating inversion recovery (FAIR) magnetic resonance imaging (MRI) technique (13) to evaluate cerebral blood flow (CBF). During imaging, mice were immobilized with 1.8% isoflurane delivered through a nose cone. To maintain body temperature, the MRI is equipped with embedded tubes that convect water from an external heater-pump. Respiration was monitored using a pneumatic pillow (SA Instruments, Stonybrook, USA); isoflurane levels were adjusted to maintain respiration at approximately 50 breaths/minute.
# FAIR images were obtained using a 7 Tesla micro-MRI system (BioSpec 70/30 USR, Bruker BioSpin, Ettlingen, Germany), including the B-GA12 gradient insert, 72 mm inner diameter linear volume resonator for RF transmission, and anteriorly placed head coil for RF reception. […] FAIR images were evaluated by manual prescription (MIPAV, NIH, Bethesda, MD; http://mipav.cit.nih.gov) of sub-hemispheric regions-of-interest (ROIs), termed ‘global’, and local ROIs corresponding to cortical and sub-cortical parenchyma in forebrain sections; cortical and paraventricular parenchyma in middle sections; and cortical and midbrain parenchyma in hindbrain sections. […]
# T1 sequence (P26361 whole entry): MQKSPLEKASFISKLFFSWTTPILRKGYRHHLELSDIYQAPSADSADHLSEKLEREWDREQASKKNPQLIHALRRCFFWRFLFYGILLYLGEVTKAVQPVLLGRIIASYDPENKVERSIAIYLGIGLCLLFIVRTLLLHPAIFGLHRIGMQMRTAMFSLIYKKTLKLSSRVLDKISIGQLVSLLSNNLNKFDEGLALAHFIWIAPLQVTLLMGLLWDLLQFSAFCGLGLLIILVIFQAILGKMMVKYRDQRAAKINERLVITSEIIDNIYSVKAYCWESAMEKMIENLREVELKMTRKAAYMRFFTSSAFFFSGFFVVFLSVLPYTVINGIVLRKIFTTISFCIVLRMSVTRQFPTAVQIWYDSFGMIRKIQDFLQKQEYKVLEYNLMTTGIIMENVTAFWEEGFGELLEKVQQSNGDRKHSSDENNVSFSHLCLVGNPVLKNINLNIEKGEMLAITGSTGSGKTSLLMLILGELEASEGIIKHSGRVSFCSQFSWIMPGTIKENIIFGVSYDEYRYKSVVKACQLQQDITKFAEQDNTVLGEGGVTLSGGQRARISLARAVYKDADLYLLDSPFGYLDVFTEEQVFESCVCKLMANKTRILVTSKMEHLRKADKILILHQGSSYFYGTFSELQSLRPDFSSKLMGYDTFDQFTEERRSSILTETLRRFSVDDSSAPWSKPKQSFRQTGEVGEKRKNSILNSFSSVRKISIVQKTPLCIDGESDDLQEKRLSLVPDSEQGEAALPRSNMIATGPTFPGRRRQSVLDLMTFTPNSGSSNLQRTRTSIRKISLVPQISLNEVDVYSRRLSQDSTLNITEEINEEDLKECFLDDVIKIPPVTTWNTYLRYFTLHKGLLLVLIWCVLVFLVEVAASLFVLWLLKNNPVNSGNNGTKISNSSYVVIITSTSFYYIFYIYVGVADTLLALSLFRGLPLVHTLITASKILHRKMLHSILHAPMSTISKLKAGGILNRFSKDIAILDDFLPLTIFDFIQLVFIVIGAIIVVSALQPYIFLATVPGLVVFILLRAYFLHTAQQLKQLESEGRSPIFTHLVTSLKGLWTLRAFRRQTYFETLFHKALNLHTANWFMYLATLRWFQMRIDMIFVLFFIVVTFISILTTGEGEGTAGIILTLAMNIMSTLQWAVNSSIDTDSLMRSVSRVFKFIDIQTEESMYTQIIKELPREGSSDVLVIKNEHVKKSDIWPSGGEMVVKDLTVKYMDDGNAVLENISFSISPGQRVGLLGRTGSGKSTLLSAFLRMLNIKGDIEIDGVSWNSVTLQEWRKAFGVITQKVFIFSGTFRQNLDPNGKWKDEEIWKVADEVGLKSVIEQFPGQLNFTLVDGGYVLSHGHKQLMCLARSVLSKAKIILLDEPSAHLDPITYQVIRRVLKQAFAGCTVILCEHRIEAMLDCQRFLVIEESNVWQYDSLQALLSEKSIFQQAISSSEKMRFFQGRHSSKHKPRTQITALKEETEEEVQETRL
# Chain of wild-type CFTR (P13569 whole entry, species assumed): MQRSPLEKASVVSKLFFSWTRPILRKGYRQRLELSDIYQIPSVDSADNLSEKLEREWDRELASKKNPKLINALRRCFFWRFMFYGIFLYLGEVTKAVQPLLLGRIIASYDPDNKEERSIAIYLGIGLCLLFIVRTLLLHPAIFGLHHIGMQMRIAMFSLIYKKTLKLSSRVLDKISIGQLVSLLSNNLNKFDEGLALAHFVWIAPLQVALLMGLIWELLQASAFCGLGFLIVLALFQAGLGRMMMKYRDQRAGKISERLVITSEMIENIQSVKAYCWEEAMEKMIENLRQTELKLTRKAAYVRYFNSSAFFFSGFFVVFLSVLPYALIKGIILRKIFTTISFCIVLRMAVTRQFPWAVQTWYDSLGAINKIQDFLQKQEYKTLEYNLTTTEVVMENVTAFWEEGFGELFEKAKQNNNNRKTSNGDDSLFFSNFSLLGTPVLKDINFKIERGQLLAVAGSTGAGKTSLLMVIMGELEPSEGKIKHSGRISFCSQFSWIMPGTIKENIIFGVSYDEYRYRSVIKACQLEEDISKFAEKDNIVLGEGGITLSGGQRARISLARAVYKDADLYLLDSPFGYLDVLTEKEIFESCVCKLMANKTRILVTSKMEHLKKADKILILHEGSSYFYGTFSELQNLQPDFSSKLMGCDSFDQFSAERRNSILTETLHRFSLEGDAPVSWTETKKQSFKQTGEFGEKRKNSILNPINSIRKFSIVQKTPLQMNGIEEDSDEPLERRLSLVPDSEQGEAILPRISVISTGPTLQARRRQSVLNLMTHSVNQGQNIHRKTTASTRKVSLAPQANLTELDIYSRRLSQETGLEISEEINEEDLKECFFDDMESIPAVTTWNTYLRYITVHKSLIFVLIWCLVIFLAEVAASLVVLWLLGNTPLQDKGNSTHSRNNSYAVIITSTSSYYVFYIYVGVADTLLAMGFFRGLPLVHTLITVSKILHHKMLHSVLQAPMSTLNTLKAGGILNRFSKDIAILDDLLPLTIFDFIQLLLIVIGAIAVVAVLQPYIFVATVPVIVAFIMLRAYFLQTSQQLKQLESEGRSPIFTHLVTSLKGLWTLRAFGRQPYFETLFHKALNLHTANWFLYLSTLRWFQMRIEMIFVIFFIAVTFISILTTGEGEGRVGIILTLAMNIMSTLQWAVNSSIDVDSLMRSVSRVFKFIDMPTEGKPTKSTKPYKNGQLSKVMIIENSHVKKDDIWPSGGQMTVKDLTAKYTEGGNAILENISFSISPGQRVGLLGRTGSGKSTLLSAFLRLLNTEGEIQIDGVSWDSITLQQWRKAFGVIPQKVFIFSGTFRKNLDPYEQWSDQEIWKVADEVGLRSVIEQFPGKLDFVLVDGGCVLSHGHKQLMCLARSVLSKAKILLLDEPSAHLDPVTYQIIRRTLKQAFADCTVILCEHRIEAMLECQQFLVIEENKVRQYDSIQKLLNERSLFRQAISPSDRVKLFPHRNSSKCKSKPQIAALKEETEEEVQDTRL
compound,measurement,setting,value
"O=C(Nc1ncc(C(c2ccccc2Cl)N2CCC(O)C2)s1)C1(c2ccc3c(c2)OCO3)CC1 (stereo not shown) [C18, 1-(benzo[d][1,3]dioxol-5-yl)-N-(5-((2-chlorophenyl)(3-hydroxypyrrolidin-1-yl)methyl)thiazol-2-yl)cyclopropanecarboxamide]",forskolin-stimulated iodide efflux after TNF,CFTR [1],fully restores; also recorded: normalization
same,interaction with wild-type CFTR / CFTR expression at the plasma membrane,wild-type CFTR,directly interacts with and stabilizes wild-type CFTR
same,FITC-labeled sphingosine-1-phosphate uptake after TNF,CFTR [2],fully restores; also recorded: normalization
same,cerebral blood flow / cerebral perfusion,mice with heart failure,restores; also recorded: significantly improves
